According to patent publication US20230340417A1, “DEFINED MATRIX FOR THE DIFFERENTIATION OF ISLETS” (Washington University, priority 2022, published 2023):
Entries after “also recorded” stand apart in the source; their conditions may differ.

Key:
stem cells = assay: Adhesion of cells to plates coated with different extracellular matrix proteins during differentiation; assay type: cell-based, human; details: for adherence of seeding stem cells to the ECM to start differentiation: FIG. 11; for attachment of cells to the plate in early differentiation stages: stage 1 and 2, ECM protein used alone; for time at which cells came off the plate: stage/day of protocol (s = stage, d = day)
Protocol: (§1) Experiment goal: test if our SC-β cell differentiation method works with different extracellular matrix proteins. Stem cells were propagated on Matrigel as normal. Cells were plated on the different ECMs when seeding the differentiations. For the combinations of laminin 111 and collagen IV, the total protein concentration was kept the same. The ratio of these was changed from 3:1, 1:1, and 1:3. Some of the ECMs induced the cells to form clusters on the plate in stage 6, so some clusters were scrapped off instead of aggregating them for comparison. The differentiation protocol utilized was previously published (Hogrebe et al Nature Biotechnology 2020; Hogrebe et al Nature Protocols 2021; and WO 2019/222487) and modified to include different ECM proteins.

[1] = system: human pluripotent stem cells; assay: SC-β cell differentiation on different extracellular matrix proteins; assay type: cell-based; details: for outcome of differentiation of stem cells to SC-β cells: cells plated on the ECM when seeding the differentiation
Protocol: as §1

**Q.** Which results are given for “collagen 1: extracellular matrix protein tested as plate coating for differentiation”?
**A.** adherence of seeding stem cells to the ECM to start differentiation (stem cells): weren't as adhesive; attachment of cells to the plate in early differentiation stages (stem cells): detached completely; attachment of cells to the plate in early differentiation stages (stem cells; listed as collagen I): monolayer of stem cells detaching from the plate; time at which cells came off the plate (stem cells): came off on s2d1

**Q.** Which “attachment of cells to the plate in early differentiation stages” value (stem cells) does the source give for “collagen IV: extracellular matrix protein tested as plate coating, alone or combined with laminin 111” here?
**A.** The value was “detached completely; also recorded: monolayer of stem cells detaching from the plate”.

**Q.** What about the “adhesion of endocrine cells to the plate” value (stem cells; stage 6) of the same molecule?
**A.** Its value is “makes the endocrine cells stick to the plate”.

**Q.** And the “time at which cells came off the plate” value (stem cells)?
**A.** Its value is “started coming off on s1d3”.

**Q.** What does the source list for fibronectin?
**A.** outcome of differentiation of stem cells to SC-β cells [1]: failed; adherence of seeding stem cells to the ECM to start differentiation (stem cells): do not effectively adhere

B1: vitronectin: extracellular matrix protein tested as plate coating for differentiation (protein, UniProt P04004 20-478, looked up)
Vitronectin: DQESCKGRCTEGFNVDKKCQCDELCSYYQSCCTDYTAECKPQVTRGDVFTMPEDEYTVYDDGEEKNNATVHEQVGGPSLTSDLQAQSKGNPEQTPVLKPEEEAPAPEVGASKPEGIDSRPETLHPGRPQPPAEEELCSGKPFDAFTDLKNGSLFAFRGQYCYELDEKAVRPGYPKLIRDVWGIEGPIDAAFTRINCQGKTYLFKGSQYWRFEDGVLDPDYPRNISDGFDGIPDNVDAALALPAHSYSGRERVYFFKGKQYWEYQFQHQPSQEECEGSSLSAVFEHFAMMQRDSWEDIFELLFWGRTSAGTRQPQFISRDWHGVPGQVDAAMAGRIYISGMAPRPSLAKKQRFRHRNRKGYRSQRGHSRGRNQNSRRPSRATWLSLFSSEESNLGANNYDDYRMDWLVPATCEPIQSVFFFSGDKYYRVNLRTRRVDTVDPPYPRSIAQYWLGCPAPGHL
**Q.** Which results are given for B1?
**A.** outcome of differentiation of stem cells to SC-β cells [1]: failed; cell types obtained ([1]; differentiations done on vitronectin only, FIG. 12): a lot of off-target cell types and no endocrine cells; adherence of seeding stem cells to the ECM to start differentiation (stem cells): do effectively adhere
